# From patent US4329341A, “5-Phenyl-1,3,4,5-tetrahydro-2H-1,4-benzodiazepin-2-ones, and pharmaceutical compositions containing them” (Richter Gedeon Vegyeszeti Gyar Rt, priority 1980, dated 1982)
# Key:
# [1] = test system: NADPH-depending multifunctional oxydase enzyme system of the liver; test: Hexobarbital-induced sleeping time (measurement of enzyme inducing activity); assay type: in vivo, CFLP male mice; settings: for Hexobarbital-sleeping time, 1-hour pretreatment, average ± SE / Hexobarbital-sleeping time, 1-hour pretreatment, Δ% (percentage change related to the control) / Hexobarbital-sleeping time, 24-hour pretreatment, Δ% (percentage change related to the control) / Hexobarbital-sleeping time, 24-hour pretreatment, average ± SE: 40 mg./kg. p.o., hexobarbital 60 mg./kg. i.v.; for Hexobarbital-sleeping time, 1-hour pretreatment, average ± SE: control 35 ± 2.38; for Hexobarbital-sleeping time, 1-hour pretreatment, Δ% (percentage change related to the control) / Hexobarbital-sleeping time, 24-hour pretreatment, average ± SE: x: p < 0.001 compared to the control; for Hexobarbital-sleeping time, 24-hour pretreatment, average ± SE: control 34 ± 2.60
# Source text: The biological activity and duration of activity of different endogenic and exogenic compounds are greatly influenced by the activity of the NADPH- (nicotinic acid amide-adenine-dinucleotide phosphate-) depending multifunctional oxydase enzyme system of the liver. There are numerous compounds known in the art, showing various pharmacological activities, which are capable of increasing or inducing the activity of the metabolising, multifunctional oxydase enzyme system of the liver [see e.g. Sher, S.P.: Toxicol. appl. Pharmacol. 18, 780 /1971/; G. J. Mannering: in A. Burger's Selected Pharmacological Testing Methods, 51-119 S., Marcel Dekker Inc., New York /1968/]. […] Therefore phenobarbital can successfully be used in the treatment of Czigler-Najjar and Cilbert syndroms and neonatal hyperbilirubinemia, though due to its hypnotic-sedative effect the inducing activity of this compound is not optimal [Vessel and J. E. Page: J. Clin. Invest. 48, 2202 /1969/; J. T. Wilson: Pediatrics 43, 424 /1969/].
# For screening the enzyme inducing activity the change in the hexobarbital-induced sleeping time is conventionally measured. The inducing activity of the compounds of the general formula (I) according to the invention was compared to the corresponding activity of phenobarbital and to their own sedative effect, using the following test methods.
# Determination of the sleeping time induced by hexobarbital (measurement of enzyme inducing activity)
# After (a) one hour and (b) after 24-hour pretreatment with a 40 mg./kg. p.o. dose of the test compounds, the groups of test animals were administered a 60 mg./kg. i.v. dose of hexobarbital.
# (§1) As test animals CFLP male mice weighing […]. were used.
# CFLP male mice = test: Potentiation of activity of sodium-barbital (measurement of the sedative activity); assay type: in vivo; settings: for Number of the test animals fallen asleep in % of the control: 20 mg./kg. i.p., after one hour Na-barbital 100 mg./kg. i.p.
# Method: Determination of the potentiation of activity of sodium-barbital (measurement of the sedative activity)
# In the tests carried out [see S. Goldschmidt and R. Wohr: Z. physiol. Chem. 308, 9 /1957/; D. V. Parker: J. Pharm. Pharmac. 27, 729 /1975/] the test animals were pretreated with a 20 mg./kg. i.p. dose of the test compounds of the general formula (I) and after one hour were administered a 100 mg./kg. i.p. dose of Na-barbital.
# as §1
# Acute toxicity (p.o.) = test: Acute toxicity (p.o.); parameters: species or system CFLP male mice; settings: mouse, in vivo, po, 14 days
# Method: To the test animals 250 and 500 mg./kg. doses, resp. of the test compounds were administered orally and the number of the dead animals was registered for 14 days.
# as §1
# [2] = test system: metabolysing enzyme system of the liver; settings: diseases caused by defectiveness of the metabolysing enzyme system of the liver; cited from earlier work
compound,measurement,setting,value
"C[C@H]1C(=O)N(C)c2ccc(Cl)cc2[C@H](c2ccccc2)N1C(N)=O [Example 3, 3S,5S-1,3-Dimethyl-4-carbamoyl-5-phenyl-7-chloro-1,3,4,5-tetrahydro-2H-1,4-benzodiazepin-2-one]","Hexobarbital-sleeping time, 1-hour pretreatment, average ± SE",[1]; 1-hour pretreatment,43.3 ± 4.18 min
same,"Hexobarbital-sleeping time, 1-hour pretreatment, Δ% (percentage change related to the control)",[1]; 1-hour pretreatment,+23%
same,"Hexobarbital-sleeping time, 24-hour pretreatment, Δ% (percentage change related to the control)",[1],-65%
same,"Hexobarbital-sleeping time, 24-hour pretreatment, average ± SE",[1],12.0 ± 0.83 min
same,"Sleeping time 1 hour after administration, in words",[1]; 1-hour pretreatment,most favourable properties
same,Number of the test animals fallen asleep in % of the control,CFLP male mice,0%
"C[C@@H]1N[C@@H](c2ccccc2)c2cc(Cl)ccc2N(C)C1=O [Example 1, 3S,5S-1,3-Dimethyl-5-phenyl-7-chloro-1,3,4,5-tetrahydro-2H-1,4-benzodiazepin-2-one]","Hexobarbital-sleeping time, 1-hour pretreatment, average ± SE",[1]; 1-hour pretreatment,67.2 ± 7.01 min
same,"Hexobarbital-sleeping time, 1-hour pretreatment, Δ% (percentage change related to the control)",[1]; 1-hour pretreatment,+91%
same,"Hexobarbital-sleeping time, 24-hour pretreatment, Δ% (percentage change related to the control)",[1],-43%
same,"Hexobarbital-sleeping time, 24-hour pretreatment, average ± SE",[1],19.5 ± 1.84 min
same,Number of the test animals fallen asleep in % of the control,CFLP male mice,50%
"CCC1(CC)C(=O)NC(=O)NC1=O [Na-barbital, sodium-barbital, reference compound]",Narcotic effect of Na-barbital alone,CFLP male mice; 100 mg./kg. i.p. Na-barbital,no narcotic effect
"C[C@@H]1C(=O)N(C)c2ccc(Cl)cc2[C@@H](c2ccccc2)N1C(N)=O (relative stereo) [Example 5, 3RS,5RS-1,3-Dimethyl-4-carbamoyl-5-phenyl-7-chloro-1,3,4,5-tetrahydro-2H-1,4-benzodiazepin-2-one]","Hexobarbital-sleeping time, 1-hour pretreatment, average ± SE",[1]; 1-hour pretreatment,37.3 ± 3.01 min
same,"Hexobarbital-sleeping time, 1-hour pretreatment, Δ% (percentage change related to the control)",[1]; 1-hour pretreatment,+6%
same,"Hexobarbital-sleeping time, 24-hour pretreatment, Δ% (percentage change related to the control)",[1],-73%
same,"Hexobarbital-sleeping time, 24-hour pretreatment, average ± SE",[1],9 ± 0.43 min
same,"Sleeping time 1 hour after administration, in words",[1]; 1-hour pretreatment,most favourable properties
same,Number of the test animals fallen asleep in % of the control,CFLP male mice,20%
"C[C@@H]1C(=O)N(C)c2ccc(Cl)cc2[C@@H](c2ccccc2)N1C(N)=O [Example 4, 3R,5R-1,3-Dimethyl-4-carbamoyl-5-phenyl-7-chloro-1,3,4,5-tetrahydro-2H-1,4-benzodiazepin-2-one]","Hexobarbital-sleeping time, 1-hour pretreatment, average ± SE",[1]; 1-hour pretreatment,43.3 ± 5.01 min
same,"Hexobarbital-sleeping time, 1-hour pretreatment, Δ% (percentage change related to the control)",[1]; 1-hour pretreatment,+23%
same,"Hexobarbital-sleeping time, 24-hour pretreatment, Δ% (percentage change related to the control)",[1],-71%
same,"Hexobarbital-sleeping time, 24-hour pretreatment, average ± SE",[1],9.9 ± 0.62 min
same,"Sleeping time 1 hour after administration, in words",[1]; 1-hour pretreatment,most favourable properties
same,Number of the test animals fallen asleep in % of the control,CFLP male mice,.phi.
"CCC1(c2ccccc2)C(=O)NC(=O)NC1=O [Phenobarbital, reference compound]","Hexobarbital-sleeping time, 1-hour pretreatment, average ± SE",[1]; 1-hour pretreatment,86.2 ± 7.51 min
same,"Hexobarbital-sleeping time, 1-hour pretreatment, Δ% (percentage change related to the control)",[1]; 1-hour pretreatment,+145%
same,"Hexobarbital-sleeping time, 24-hour pretreatment, Δ% (percentage change related to the control)",[1],-69%
same,"Hexobarbital-sleeping time, 24-hour pretreatment, average ± SE",[1],11.2 ± 0.35 min
same,Increase of sleeping time relative to its original value,[1]; 1-hour pretreatment,~3 times
same,LD50 at 336 h,Acute toxicity (p.o.),191 mg/kg
same,"Inducing activity in human diseases, in words",[2],shows an inducing activity in the case of human diseases
same,Number of the test animals fallen asleep in % of the control,CFLP male mice,60%
"C[C@H]1N[C@H](c2ccccc2)c2cc(Cl)ccc2N(C)C1=O [Example 2, 3R,5R-1,3-Dimethyl-5-phenyl-7-chloro-1,3,4,5-tetrahydro-2H-1,4-benzodiazepin-2-one]","Hexobarbital-sleeping time, 1-hour pretreatment, average ± SE",[1]; 1-hour pretreatment,61.2 ± 5.21 min
same,"Hexobarbital-sleeping time, 1-hour pretreatment, Δ% (percentage change related to the control)",[1]; 1-hour pretreatment,+73%
same,"Hexobarbital-sleeping time, 24-hour pretreatment, Δ% (percentage change related to the control)",[1],-61%
same,"Hexobarbital-sleeping time, 24-hour pretreatment, average ± SE",[1],13.3 ± 0.54 min
same,Number of the test animals fallen asleep in % of the control,CFLP male mice,.phi.
